Laboratory results: the supplement of paper PMC13380429

Experiments:
Details in all cases: 72 h
[1] = test system: HepG2; assay: cell viability relative to DMSO; higher = less toxic
[2] = test system: Calu-3; assay: as above
[3] = test system: Vero E6; assay: as above
[4] = test system: U2OS; assay: as above
[5] = test system: Caco-2; assay: as above
[6] = test system: HepG2; assay: relative viability EC50 (midpoint between 100% and the lowest measured viability); higher = less toxic
[7] = test system: Calu-3; assay: as above
[8] = test system: Vero E6; assay: as above
[9] = test system: U2OS; assay: as above
[10] = test system: Caco-2; assay: as above
[11] = test system: HepG2; assay: drug sensitivity score (DSS) for viability; higher = more toxic; extreme values may be limits of the assay
[12] = test system: Calu-3; assay: as above
[13] = test system: Vero E6; assay: as above
[14] = test system: U2OS; assay: as above
[15] = test system: Caco-2; assay: as above

| Compound | cell viability ([1]; 1 nM) [%] | cell viability ([1]; 10 nM) [%] | cell viability ([1]; 100 nM) [%] | cell viability ([1]; 1000 nM) [%] | cell viability ([1]; 10000 nM) [%] | cell viability ([2]; 1 nM) [%] | cell viability ([2]; 10 nM) [%] | cell viability ([2]; 100 nM) [%] | cell viability ([2]; 1000 nM) [%] | cell viability ([2]; 10000 nM) [%] | cell viability ([3]; 1 nM) [%] | cell viability ([3]; 10 nM) [%] | cell viability ([3]; 100 nM) [%] | cell viability ([3]; 1000 nM) [%] | cell viability ([3]; 10000 nM) [%] | cell viability ([4]; 1 nM) [%] | cell viability ([4]; 10 nM) [%] | cell viability ([4]; 100 nM) [%] | cell viability ([4]; 1000 nM) [%] | cell viability ([4]; 10000 nM) [%] | cell viability ([5]; 1 nM) [%] | cell viability ([5]; 10 nM) [%] | cell viability ([5]; 100 nM) [%] | cell viability ([5]; 1000 nM) [%] | cell viability ([5]; 10000 nM) [%] | relative viability EC50 [6] [µM] | relative viability EC50 [7] [µM] | relative viability EC50 [8] [µM] | relative viability EC50 [9] [µM] | relative viability EC50 [10] [µM] | drug sensitivity score [11] | drug sensitivity score [12] | drug sensitivity score [13] | drug sensitivity score [14] | drug sensitivity score [15] |
| --- | --- | --- | --- | --- | --- | --- | --- | --- | --- | --- | --- | --- | --- | --- | --- | --- | --- | --- | --- | --- | --- | --- | --- | --- | --- | --- | --- | --- | --- | --- | --- | --- | --- | --- | --- |
| N[C@H]1C[C@@H]1c1ccccc1 (racemic) [tranylcypromine] | 104 | 103 | 97 | 98.5 | 100 | 92.5 | 97.7 | 97.6 | 100 | 99.7 | 100 | 99.8 | 93.3 | 97.1 | 108 | 96.6 | 102 | 97.7 | 103 | 103 | 90.7 | 106 | 93.7 | 104 | 104 | > 10 | > 10 | > 10 | > 10 | > 10 | 0 | 0 | 0 | 0 | 0 |
| O=C(c1ccc(F)cc1)C1CCN(CCCCc2ccccc2)CC1 [4-(4-fluorobenzoyl)-1-(4-phenylbutyl)-piperidine] | 101 | 96 | 95.2 | 101 | 79.4 | 104 | 106 | 87.9 | 106 | 85.8 | 103 | 105 | 102 | 98.9 | 95.7 | 99.4 | 96.8 | 96.8 | 95.9 | 98.2 | 98.9 | 99.6 | 106 | 90.4 | 94.9 | > 10 | > 10 | > 10 | > 10 | > 10 | 0.6 | 0.1 | 0 | 0 | 0 |
| OCc1cncc(F)c1 [5-fluoro-3-pyridyl-methanol] | 106 | 104 | 109 | 97.2 | 102 | 101 | 97.2 | 95.1 | 99.3 | 99.9 | 104 | 104 | 102 | 98.8 | 105 | 98.4 | 105 | 98.4 | 104 | 97.8 | 96 | 106 | 102 | 107 | 106 | > 10 | > 10 | > 10 | > 10 | > 10 | 0 | 0 | 0 | 0 | 0 |
| N[C@@H](Cc1c[nH]c2ccc(O)cc12)C(=O)O [5-hydroxytryptophan] | 102 | 97.4 | 105 | 106 | 94.9 | 93.6 | 94.7 | 94.1 | 94.4 | 107 | 98.4 | 95.7 | 100 | 92.3 | 95.5 | 100 | 97.3 | 99.6 | 94.2 | 96.6 | 93.3 | 94.5 | 92.5 | 88.8 | 103 | > 10 | > 10 | > 10 | > 10 | > 10 | 0 | 0 | 0 | 0 | 0 |
| NC1(C(=O)O)CC1 [ACPC] | 103 | 98.9 | 90 | 99.5 | 93.4 | 98.6 | 93.4 | 93.1 | 102 | 96.8 | 102 | 96.9 | 96.7 | 94.5 | 98.4 | 93.8 | 96 | 95.9 | 96.3 | 98.1 | 92.3 | 98.6 | 104 | 87.7 | 105 | > 10 | > 10 | > 10 | > 10 | > 10 | 0 | 0 | 0 | 0 | 0 |
| NS(=O)(=O)c1nn2cc(-c3ccccc3)nc2s1 [AEG3482] | 87.5 | 90.2 | 93 | 97 | 94.6 | 98 | 104 | 95.8 | 95.1 | 109 | 97.2 | 97 | 96.1 | 94.8 | 92.1 | 101 | 98.1 | 97.8 | 99.2 | 100 | 99.9 | 99 | 102 | 88.4 | 89.4 | > 10 | > 10 | > 10 | > 10 | > 10 | 0 | 0 | 0 | 0 | 0.4 |
| O=C(Nc1cccc(C(F)(F)F)c1)Nc1cc(S(=O)(=O)NC2CC2)ccc1-c1ccsc1 [AGI-6780] | 93.3 | 103 | 94 | 105 | 86.5 | 96.9 | 90.4 | 99 | 103 | 110 | 95.1 | 97.4 | 93.5 | 97.2 | 106 | 97.6 | 98.9 | 101 | 92.3 | 87.5 | 94.2 | 93 | 99.8 | 97.4 | 85.7 | > 10 | > 10 | > 10 | > 10 | > 10 | 0.1 | 0 | 0 | 0.4 | 0.4 |
